Data on 1 substance can be found in paper PMC12830207, “Targeting the protein–protein interaction between the CDC37 cochaperone and client kinases by an allosteric RAF dimer breaker” (The Journal of Biological Chemistry, 2025).

The test concerns CRAF–CDC37 interaction. Nature of the test: NanoBiT luminescence CDC37–RAF interaction reporter assay, CRAF^SmBiT–CDC37^LgBiT. In kind it is cell-based, human (HEK293). The note with it: HEK293, 25 μM braftide, 4 h, 1 μM bortezomib pretreatment 5 h, 10 μM furimazine, 470 to 480 nm. An excerpt:
NanoBiT cytomegalovirus MCS BiBiT vector, which contains a BRAF N terminal fused with LgBiT and CRAF N terminal fused with SmBiT, was purchased from Promega. CDC37 LgBiT and CRAF SmBiT was generated using the standard Gibson Assembly (NEB HiFi Assembly) using NanoBiT BiBiT as the vector and following primers: 5′ […] 3′, 5′ […] 3′, and CDC37 LgBiT and BRAF SmBiT was generated using the standard Gibson Assembly using NanoBiT BiBiT as the vector and following primers: 5′ […] 3′, 5′ […] 3′. Primers were designed to introduce H20A, N22A, I23A triple mutation within the CDC37 FLAG tag and for NanoBiT construct CDC37(HNI/A) LgBit and BRAF SmBiT. Primers were designed to introduce the desired substitutions. The forward primer sequence was 5′ gccgcc[…] […]
Twenty-four hours post-transfection, cells were trypsinized, pelleted, resuspended in OptiMEM + 4% fetal bovine serum, and reseeded onto a 96-well plate at 5(10)^4 cells per well and then incubated at 37 °C overnight. […] After treatment, 10 μM furimazine substrate was added to each well, and luminescence readings were taken at 470 to 480 nm using a CLARIOstar plate reader. Statistical significance was determined through a paired t test where indicated, followed by Tukey's honest significant difference post hoc test with corresponding p values (∗p < 0.05, ∗∗p < 0.01, and ∗∗∗p < 0.001). […]

“GRKKRRQRRRPQ-miniPEG-TRHVNILLFM [Braftide]”: the “NanoBiT luminescence, CRAF^SmBiT–CDC37^LgBiT” value is on record as “reduction in luminescence, reflecting a decrease in the CDC37–RAF interaction”.
